# In ChEMBL document CHEMBL3991601, “The target landscape of clinical kinase drugs” (Science, 2017):
# Calls of active or inactive are those of the source.
# Experiments:
# [1] = target: Dual specificity protein kinase CLK3 (Homo sapiens, UniProt P49761); type: subcellular, K-562, COLO 205, SK-N-BE(2) and MV-4-11, Cell lysate; settings: read-out: Kd apparent
# [2] = target: T1, Peroxisomal acyl-coenzyme A oxidase 1 (Homo sapiens, UniProt Q15067)
# T1 sequence (Q15067 whole entry): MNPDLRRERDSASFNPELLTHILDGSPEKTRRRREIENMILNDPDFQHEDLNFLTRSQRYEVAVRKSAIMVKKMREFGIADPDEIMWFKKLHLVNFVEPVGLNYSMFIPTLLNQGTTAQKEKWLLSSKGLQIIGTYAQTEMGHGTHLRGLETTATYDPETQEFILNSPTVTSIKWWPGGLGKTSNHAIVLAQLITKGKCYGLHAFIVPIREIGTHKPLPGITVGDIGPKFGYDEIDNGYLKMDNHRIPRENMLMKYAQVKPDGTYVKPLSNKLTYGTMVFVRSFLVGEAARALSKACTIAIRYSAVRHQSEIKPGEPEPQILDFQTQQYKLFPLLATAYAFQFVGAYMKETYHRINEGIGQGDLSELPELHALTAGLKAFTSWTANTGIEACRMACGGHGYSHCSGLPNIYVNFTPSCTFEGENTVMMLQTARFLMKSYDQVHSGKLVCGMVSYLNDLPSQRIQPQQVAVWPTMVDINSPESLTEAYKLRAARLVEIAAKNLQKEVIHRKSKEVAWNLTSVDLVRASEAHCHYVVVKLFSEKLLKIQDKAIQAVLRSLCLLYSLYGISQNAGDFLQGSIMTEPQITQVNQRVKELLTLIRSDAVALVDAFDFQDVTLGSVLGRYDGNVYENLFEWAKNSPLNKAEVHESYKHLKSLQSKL
# [3] = target: T2, Calcium/calmodulin-dependent protein kinase type IV (Homo sapiens, UniProt Q16566)
# T2 sequence (Q16566 whole entry): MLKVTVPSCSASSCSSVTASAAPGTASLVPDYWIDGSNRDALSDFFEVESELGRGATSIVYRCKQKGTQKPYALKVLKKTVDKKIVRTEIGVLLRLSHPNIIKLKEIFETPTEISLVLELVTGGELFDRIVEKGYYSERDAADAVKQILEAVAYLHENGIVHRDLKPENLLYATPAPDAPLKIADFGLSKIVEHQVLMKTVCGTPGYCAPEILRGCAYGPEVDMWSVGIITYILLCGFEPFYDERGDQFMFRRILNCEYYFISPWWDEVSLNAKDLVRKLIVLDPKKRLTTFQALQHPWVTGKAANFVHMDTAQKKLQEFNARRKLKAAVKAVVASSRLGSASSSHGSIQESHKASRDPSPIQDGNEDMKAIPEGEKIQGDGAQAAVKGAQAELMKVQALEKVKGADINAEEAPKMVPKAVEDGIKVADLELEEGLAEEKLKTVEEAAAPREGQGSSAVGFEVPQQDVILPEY
# [4] = target: Dual specificity protein kinase CLK1 (Homo sapiens, UniProt P49759)
# Chain of Dual specificity protein kinase CLK1 (P49759 whole entry): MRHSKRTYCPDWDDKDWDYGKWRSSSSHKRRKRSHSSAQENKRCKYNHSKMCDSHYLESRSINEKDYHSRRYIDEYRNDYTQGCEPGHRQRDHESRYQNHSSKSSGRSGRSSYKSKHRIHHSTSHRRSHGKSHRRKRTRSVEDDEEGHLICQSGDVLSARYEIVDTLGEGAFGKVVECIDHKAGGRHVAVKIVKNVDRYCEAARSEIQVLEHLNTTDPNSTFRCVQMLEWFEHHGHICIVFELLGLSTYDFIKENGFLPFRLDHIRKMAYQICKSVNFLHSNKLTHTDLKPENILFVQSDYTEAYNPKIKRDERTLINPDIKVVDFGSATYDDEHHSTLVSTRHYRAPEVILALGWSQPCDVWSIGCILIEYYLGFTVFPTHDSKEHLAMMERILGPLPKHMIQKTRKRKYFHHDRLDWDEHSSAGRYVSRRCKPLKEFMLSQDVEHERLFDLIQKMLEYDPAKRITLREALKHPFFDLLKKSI
# [5] = target: Dual specificity protein kinase CLK2 (Homo sapiens, UniProt P49760)
# Chain of Dual specificity protein kinase CLK2 (P49760 whole entry): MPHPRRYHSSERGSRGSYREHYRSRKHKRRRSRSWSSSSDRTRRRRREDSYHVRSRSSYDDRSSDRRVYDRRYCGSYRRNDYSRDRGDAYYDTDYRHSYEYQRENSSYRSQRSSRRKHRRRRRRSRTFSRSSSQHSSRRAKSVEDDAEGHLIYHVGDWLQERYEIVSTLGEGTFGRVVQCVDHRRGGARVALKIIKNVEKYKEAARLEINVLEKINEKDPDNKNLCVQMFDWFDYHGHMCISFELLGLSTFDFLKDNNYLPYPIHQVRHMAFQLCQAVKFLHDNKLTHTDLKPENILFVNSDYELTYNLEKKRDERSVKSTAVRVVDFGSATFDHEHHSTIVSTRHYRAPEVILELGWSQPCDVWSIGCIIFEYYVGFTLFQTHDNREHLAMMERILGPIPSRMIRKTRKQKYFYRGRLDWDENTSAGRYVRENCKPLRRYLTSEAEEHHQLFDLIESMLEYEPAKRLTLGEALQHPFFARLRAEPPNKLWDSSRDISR
# [6] = target: Tyrosine-protein kinase Lck (Homo sapiens, UniProt P06239)
# Chain of Tyrosine-protein kinase Lck (P06239 whole entry): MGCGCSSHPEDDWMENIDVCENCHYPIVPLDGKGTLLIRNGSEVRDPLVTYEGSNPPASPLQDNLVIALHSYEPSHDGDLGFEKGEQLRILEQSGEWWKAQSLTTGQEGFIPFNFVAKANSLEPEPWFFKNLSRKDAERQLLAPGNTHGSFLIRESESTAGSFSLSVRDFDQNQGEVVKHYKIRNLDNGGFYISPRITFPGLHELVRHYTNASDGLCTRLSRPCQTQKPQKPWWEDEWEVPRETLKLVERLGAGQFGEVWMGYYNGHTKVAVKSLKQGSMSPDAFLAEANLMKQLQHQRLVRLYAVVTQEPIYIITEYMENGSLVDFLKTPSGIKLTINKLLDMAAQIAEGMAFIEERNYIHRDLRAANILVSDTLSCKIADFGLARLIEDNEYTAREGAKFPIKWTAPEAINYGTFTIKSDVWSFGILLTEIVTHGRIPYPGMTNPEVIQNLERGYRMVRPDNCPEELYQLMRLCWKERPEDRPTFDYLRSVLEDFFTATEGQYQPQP
# [7] = target: T3, Dual specificity mitogen-activated protein kinase kinase 5 (Homo sapiens, UniProt Q13163)
# T3 sequence (Q13163 whole entry): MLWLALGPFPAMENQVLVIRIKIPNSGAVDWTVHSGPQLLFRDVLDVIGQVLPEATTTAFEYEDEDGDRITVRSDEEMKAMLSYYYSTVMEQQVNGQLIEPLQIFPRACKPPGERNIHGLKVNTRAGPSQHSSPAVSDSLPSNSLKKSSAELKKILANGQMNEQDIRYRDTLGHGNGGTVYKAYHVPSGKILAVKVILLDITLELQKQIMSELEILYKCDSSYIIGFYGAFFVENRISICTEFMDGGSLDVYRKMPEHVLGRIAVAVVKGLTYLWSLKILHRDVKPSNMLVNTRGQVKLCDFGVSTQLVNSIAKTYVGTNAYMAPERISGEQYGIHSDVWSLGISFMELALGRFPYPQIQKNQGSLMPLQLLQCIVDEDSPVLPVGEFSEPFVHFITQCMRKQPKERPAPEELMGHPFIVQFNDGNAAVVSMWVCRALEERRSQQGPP
# [8] = target: Mitogen-activated protein kinase 14 (Homo sapiens, UniProt Q16539)
# Chain of Mitogen-activated protein kinase 14 (Q16539 whole entry): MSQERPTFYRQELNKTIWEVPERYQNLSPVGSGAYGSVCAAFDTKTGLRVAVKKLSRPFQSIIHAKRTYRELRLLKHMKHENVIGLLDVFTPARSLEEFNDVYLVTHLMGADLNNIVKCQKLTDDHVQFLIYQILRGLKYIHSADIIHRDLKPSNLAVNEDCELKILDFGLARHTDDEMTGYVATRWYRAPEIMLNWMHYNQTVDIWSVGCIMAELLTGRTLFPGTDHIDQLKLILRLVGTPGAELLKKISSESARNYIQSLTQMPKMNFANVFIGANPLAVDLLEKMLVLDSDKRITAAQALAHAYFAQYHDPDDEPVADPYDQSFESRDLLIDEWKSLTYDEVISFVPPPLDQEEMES
# [9] = target: Myosin-10 (Homo sapiens, UniProt P35580)
# [10] = target: T4, Serine/threonine-protein kinase NLK (Homo sapiens, UniProt Q9UBE8)
# T4 sequence (Q9UBE8 whole entry): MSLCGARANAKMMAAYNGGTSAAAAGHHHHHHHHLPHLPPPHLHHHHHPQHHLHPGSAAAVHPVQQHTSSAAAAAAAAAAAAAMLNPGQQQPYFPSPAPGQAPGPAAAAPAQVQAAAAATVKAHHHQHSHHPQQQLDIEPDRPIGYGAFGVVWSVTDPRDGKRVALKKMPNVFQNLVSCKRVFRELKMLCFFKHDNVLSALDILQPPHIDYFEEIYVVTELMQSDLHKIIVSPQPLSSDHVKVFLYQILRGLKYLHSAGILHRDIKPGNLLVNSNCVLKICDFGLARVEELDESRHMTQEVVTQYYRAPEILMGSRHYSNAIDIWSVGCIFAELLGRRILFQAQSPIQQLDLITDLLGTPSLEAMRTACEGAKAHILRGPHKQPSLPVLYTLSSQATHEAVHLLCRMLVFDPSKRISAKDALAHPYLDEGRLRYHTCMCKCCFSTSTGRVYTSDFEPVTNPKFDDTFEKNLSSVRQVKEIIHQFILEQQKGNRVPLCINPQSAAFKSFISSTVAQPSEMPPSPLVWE
# [11] = target: Protein kinase C theta type (Homo sapiens, UniProt Q04759)
# Chain of Protein kinase C theta type (Q04759 whole entry): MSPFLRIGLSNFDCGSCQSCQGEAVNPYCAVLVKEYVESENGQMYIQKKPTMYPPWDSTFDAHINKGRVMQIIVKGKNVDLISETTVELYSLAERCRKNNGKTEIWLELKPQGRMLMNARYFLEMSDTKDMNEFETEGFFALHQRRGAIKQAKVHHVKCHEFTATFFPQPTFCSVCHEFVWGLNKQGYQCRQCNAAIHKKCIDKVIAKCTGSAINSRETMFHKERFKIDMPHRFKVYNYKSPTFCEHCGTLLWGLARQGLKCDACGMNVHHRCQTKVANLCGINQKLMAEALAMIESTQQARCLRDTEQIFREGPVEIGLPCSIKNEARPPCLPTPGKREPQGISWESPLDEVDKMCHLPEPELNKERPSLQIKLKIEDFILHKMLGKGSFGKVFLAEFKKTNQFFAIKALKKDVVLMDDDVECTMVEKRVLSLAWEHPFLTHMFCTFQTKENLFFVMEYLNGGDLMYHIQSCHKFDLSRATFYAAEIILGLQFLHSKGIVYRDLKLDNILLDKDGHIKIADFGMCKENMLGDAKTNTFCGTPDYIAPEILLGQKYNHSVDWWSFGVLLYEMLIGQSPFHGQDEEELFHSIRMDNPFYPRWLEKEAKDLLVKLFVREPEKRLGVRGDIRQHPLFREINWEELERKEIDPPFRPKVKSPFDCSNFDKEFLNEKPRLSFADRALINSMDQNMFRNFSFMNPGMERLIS
# [12] = target: Focal adhesion kinase 1 (Homo sapiens, UniProt Q05397)
# [13] = target: Dual specificity testis-specific protein kinase 1 (Homo sapiens, UniProt Q15569)
# Chain of Dual specificity testis-specific protein kinase 1 (Q15569 whole entry): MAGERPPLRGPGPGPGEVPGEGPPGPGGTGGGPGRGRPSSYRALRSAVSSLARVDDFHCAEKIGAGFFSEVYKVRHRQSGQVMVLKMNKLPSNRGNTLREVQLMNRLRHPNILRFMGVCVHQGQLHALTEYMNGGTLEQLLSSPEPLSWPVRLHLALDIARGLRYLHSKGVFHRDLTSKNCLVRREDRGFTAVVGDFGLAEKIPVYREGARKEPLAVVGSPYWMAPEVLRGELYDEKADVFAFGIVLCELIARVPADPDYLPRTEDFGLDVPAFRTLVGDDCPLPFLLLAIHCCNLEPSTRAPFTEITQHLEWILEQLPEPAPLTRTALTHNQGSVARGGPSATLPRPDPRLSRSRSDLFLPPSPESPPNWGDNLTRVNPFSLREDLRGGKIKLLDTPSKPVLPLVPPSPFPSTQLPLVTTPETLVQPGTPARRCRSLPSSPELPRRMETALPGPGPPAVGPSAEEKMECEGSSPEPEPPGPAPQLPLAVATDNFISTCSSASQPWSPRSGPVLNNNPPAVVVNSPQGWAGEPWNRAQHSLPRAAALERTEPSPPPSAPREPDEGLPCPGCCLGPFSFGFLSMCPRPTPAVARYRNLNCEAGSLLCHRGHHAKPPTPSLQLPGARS
# [14] = target: Dual specificity testis-specific protein kinase 2 (Homo sapiens, UniProt Q96S53)
# Chain of Dual specificity testis-specific protein kinase 2 (Q96S53 whole entry, the tested form may be a part): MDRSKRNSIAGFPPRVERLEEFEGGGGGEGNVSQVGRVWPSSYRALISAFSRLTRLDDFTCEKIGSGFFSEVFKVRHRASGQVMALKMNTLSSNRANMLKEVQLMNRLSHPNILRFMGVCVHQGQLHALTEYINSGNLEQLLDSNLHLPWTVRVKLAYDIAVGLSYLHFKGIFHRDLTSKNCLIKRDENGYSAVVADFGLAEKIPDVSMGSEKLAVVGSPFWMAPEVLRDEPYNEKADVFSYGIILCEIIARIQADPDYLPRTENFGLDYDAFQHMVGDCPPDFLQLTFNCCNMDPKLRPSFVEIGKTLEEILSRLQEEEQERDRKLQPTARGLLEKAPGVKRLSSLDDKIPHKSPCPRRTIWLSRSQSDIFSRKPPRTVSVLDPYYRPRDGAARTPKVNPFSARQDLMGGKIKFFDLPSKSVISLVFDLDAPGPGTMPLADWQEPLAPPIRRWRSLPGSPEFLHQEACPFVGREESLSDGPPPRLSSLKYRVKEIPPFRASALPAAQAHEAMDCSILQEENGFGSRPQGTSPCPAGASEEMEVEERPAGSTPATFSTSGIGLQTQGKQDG
# [15] = target: Uncharacterized aarF domain-containing protein kinase 5 (Homo sapiens, UniProt Q3MIX3)
# Chain of Uncharacterized aarF domain-containing protein kinase 5 (Q3MIX3 whole entry, the tested form may be a part): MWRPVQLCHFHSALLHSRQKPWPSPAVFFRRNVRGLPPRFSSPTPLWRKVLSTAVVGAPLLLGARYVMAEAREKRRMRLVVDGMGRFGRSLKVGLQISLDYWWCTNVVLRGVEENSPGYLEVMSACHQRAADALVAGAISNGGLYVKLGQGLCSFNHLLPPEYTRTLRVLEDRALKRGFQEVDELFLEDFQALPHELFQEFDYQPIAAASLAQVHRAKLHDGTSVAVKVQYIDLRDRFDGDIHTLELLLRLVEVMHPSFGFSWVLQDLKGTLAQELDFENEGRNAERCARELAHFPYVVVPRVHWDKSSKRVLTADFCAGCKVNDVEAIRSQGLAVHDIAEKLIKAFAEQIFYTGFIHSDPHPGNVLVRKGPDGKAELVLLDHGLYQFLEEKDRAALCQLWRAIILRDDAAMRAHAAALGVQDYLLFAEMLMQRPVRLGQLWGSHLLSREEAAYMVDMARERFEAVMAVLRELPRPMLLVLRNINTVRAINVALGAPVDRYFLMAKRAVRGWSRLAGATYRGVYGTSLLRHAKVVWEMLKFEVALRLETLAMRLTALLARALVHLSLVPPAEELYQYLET
# [16] = target: G protein-coupled receptor kinase 6 (Homo sapiens, UniProt P43250)
# Chain of G protein-coupled receptor kinase 6 (P43250 whole entry): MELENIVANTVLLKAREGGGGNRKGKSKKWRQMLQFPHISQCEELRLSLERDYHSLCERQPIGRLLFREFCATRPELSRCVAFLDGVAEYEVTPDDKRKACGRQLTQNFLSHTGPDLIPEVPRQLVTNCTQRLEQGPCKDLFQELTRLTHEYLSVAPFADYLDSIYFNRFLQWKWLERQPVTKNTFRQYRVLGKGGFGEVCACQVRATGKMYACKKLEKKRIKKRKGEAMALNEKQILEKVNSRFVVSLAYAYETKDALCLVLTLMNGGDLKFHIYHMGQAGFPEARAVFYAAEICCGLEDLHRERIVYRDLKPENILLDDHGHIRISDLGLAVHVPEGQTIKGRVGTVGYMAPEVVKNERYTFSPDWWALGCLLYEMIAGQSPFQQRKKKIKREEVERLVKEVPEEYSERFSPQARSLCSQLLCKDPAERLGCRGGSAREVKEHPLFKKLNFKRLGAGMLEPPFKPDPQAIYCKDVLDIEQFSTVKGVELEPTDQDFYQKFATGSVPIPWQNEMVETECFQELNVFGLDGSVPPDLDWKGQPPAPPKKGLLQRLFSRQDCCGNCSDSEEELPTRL
# Further: in the data inactive means no Kd found up to 30 µM.
Kd [2],Kd [5],Kd [6],Kd [8],Kd [9],Kd [11],Kd [12],Kd [14],Kd [15],SMILES,Kd [1],Kd [3],Kd [4],Kd [7],Kd [10],Kd [13],Kd [16]
> 30 µM (inactive),> 30 µM (inactive),> 30 µM (inactive),> 30 µM (inactive),> 30 µM (inactive),> 30 µM (inactive),> 30 µM (inactive),> 30 µM (inactive),–,O=C(NC[C@H](O)CO)c1ccncc1Nc1ccc(I)cc1F [PIMASERTIB],> 30 µM (inactive),> 30 µM (inactive),> 30 µM (inactive),> 30 µM (inactive),> 30 µM (inactive),> 30 µM (inactive),–
> 30 µM (inactive),–,> 30 µM (inactive),> 30 µM (inactive),> 30 µM (inactive),> 30 µM (inactive),5.4 µM (active),> 30 µM (inactive),> 30 µM (inactive),COc1cc(Nc2ncc(F)c(Nc3ccc4c(n3)N(COP(=O)(O)O)C(=O)C(C)(C)O4)n2)cc(OC)c1OC [FOSTAMATINIB],> 30 µM (inactive),> 30 µM (inactive),> 30 µM (inactive),> 30 µM (inactive),> 30 µM (inactive),> 30 µM (inactive),–
> 30 µM (inactive),–,–,–,> 30 µM (inactive),–,–,> 30 µM (inactive),> 30 µM (inactive),COc1cc2c(Oc3ccc4[nH]c(C)cc4c3F)ncnc2cc1OCCCN1CCCC1 [CEDIRANIB],–,–,–,–,–,–,> 30 µM (inactive)
> 30 µM (inactive),> 30 µM (inactive),> 30 µM (inactive),> 30 µM (inactive),> 30 µM (inactive),> 30 µM (inactive),> 30 µM (inactive),> 30 µM (inactive),> 30 µM (inactive),COc1ccc(-c2ccc3ncc4c(c3c2)n(-c2ccc(N3CCNCC3)c(C(F)(F)F)c2)c(=O)n4C)cn1 [BGT-226 FREE BASE],–,> 30 µM (inactive),0.246 µM (active),> 30 µM (inactive),> 30 µM (inactive),> 30 µM (inactive),> 30 µM (inactive)
> 30 µM (inactive),–,–,–,> 30 µM (inactive),–,–,> 30 µM (inactive),> 30 µM (inactive),CC1(C)CNc2cc(NC(=O)c3cccnc3NCc3ccncc3)ccc21 [MOTESANIB],–,–,–,–,–,–,> 30 µM (inactive)
> 30 µM (inactive),> 30 µM (inactive),1.05 µM (active),> 30 µM (inactive),> 30 µM (inactive),> 30 µM (inactive),> 30 µM (inactive),–,–,COc1cc2nccc(Oc3ccc(NC(=O)C4(C(=O)Nc5ccc(F)cc5)CC4)cc3)c2cc1OC [CABOZANTINIB],> 30 µM (inactive),> 30 µM (inactive),> 30 µM (inactive),2.39 µM (active),> 30 µM (inactive),–,–
–,> 30 µM (inactive),> 30 µM (inactive),> 30 µM (inactive),–,> 30 µM (inactive),> 30 µM (inactive),> 30 µM (inactive),> 30 µM (inactive),Cc1cc(C(=O)Nc2cc(Oc3ccc4nc(NC(=O)C5CC5)cn4n3)ccc2C)n(C)n1 [TAK-593],–,> 30 µM (inactive),> 30 µM (inactive),> 30 µM (inactive),> 30 µM (inactive),> 30 µM (inactive),> 30 µM (inactive)

SMILES,Kd [2],Kd [5],Kd [6],Kd [8],Kd [9],Kd [11],Kd [12],Kd [14],Kd [15],Kd [1],Kd [3],Kd [4],Kd [7],Kd [10],Kd [13],Kd [16]
CC(C)CC(=O)Nc1[nH]nc2c1CN(C(=O)C1CCN(C)CC1)C2(C)C [PHA-793887],> 30 µM (inactive),0.007 µM,–,> 30 µM (inactive),> 30 µM (inactive),2.34 µM (active),–,–,> 30 µM (inactive),–,> 30 µM (inactive),2.18 µM (active),> 30 µM (inactive),–,–,> 30 µM (inactive)
C=CCn1c(=O)c2cnc(Nc3ccc(N4CCN(C)CC4)cc3)nc2n1-c1cccc(C(C)(C)O)n1 [ADAVOSERTIB],> 30 µM (inactive),–,–,–,–,–,–,> 30 µM (inactive),> 30 µM (inactive),> 30 µM (inactive),> 30 µM (inactive),> 30 µM (inactive),> 30 µM (inactive),> 30 µM (inactive),> 30 µM (inactive),–
C[C@]1(O)C[C@@H](c2nc(-c3ccc4ccc(-c5ccccc5)nc4c3)c3c(N)nccn32)C1 [LINSITINIB],> 30 µM (inactive),–,–,–,> 30 µM (inactive),> 30 µM (inactive),–,> 30 µM (inactive),–,> 30 µM (inactive),> 30 µM (inactive),> 30 µM (inactive),6.56 µM (active),> 30 µM (inactive),> 30 µM (inactive),> 30 µM (inactive)
Cc1c(Cn2c(C)nc3c(C(=O)O)cc(N4CCOCC4)cc32)cccc1C(F)(F)F [GSK-2636771],> 30 µM (inactive),> 30 µM (inactive),> 30 µM (inactive),> 30 µM (inactive),–,> 30 µM (inactive),> 30 µM (inactive),> 30 µM (inactive),–,> 30 µM (inactive),> 30 µM (inactive),> 30 µM (inactive),> 30 µM (inactive),> 30 µM (inactive),> 30 µM (inactive),> 30 µM (inactive)
CN(c1ncccc1CNc1nc(Nc2ccc3c(c2)CC(=O)N3)ncc1C(F)(F)F)S(C)(=O)=O [PF-00562271],> 30 µM (inactive),–,–,–,> 30 µM (inactive),–,–,–,> 30 µM (inactive),> 30 µM (inactive),> 30 µM (inactive),0.363 µM (active),> 30 µM (inactive),> 30 µM (inactive),> 30 µM (inactive),–
CNC(=O)c1ccc(Nc2ncc(C(F)(F)F)c(NCc3nccnc3N(C)S(C)(=O)=O)n2)cc1 [DEFACTINIB],–,> 30 µM (inactive),> 30 µM (inactive),> 30 µM (inactive),–,> 30 µM (inactive),–,> 30 µM (inactive),> 30 µM (inactive),–,> 30 µM (inactive),> 30 µM (inactive),> 30 µM (inactive),> 30 µM (inactive),> 30 µM (inactive),> 30 µM (inactive)
